Test results reported in patent US6903134B2, “Formulation comprising benzofuranone derivatives for protection against oxidative stress” (Merck Patent GmbH, priority 2000, dated 2005).

Experiments:
[1] = 2,2-diphenyl-1-picrylhydrazyl (DPPH) assay, free-radical scavenging; type: biochemical; details: for free-radical scavenger / antioxidant properties compared with tocopherol (vitamin E): DPPH assay, same experimental set-up; for Absorbance in %, based on absorbance without THBC: 515 nm, 25° C., 1 cm, constant absorbance
Source text: The performance of the DPPH assay is described in Brand-Williams, W., Cuvelier, M. E. & Berset, C. […] Gamez, E. J. et al. “Antioxidant flavonoid glycosides from Daphniphyllum calycinum”; J. Nat. Prod.
2,2-Diphenyl-1-picrylhydrazyl is a free radical which is stable in solution. The unpaired electron results in a strong absorption band at 515 nm, and the solution has a dark violet colour. In the presence of a free-radical scavenger, the electron is paired, the absorption disappears, and the decoloration proceeds stoichiometrically taking into account the electrons taken up. The absorbance is measured in a photometer. The anti-free-radical property of the substance to be tested is determined by measuring the concentration at which 50% of the 2,2-diphenyl-1-picrylhydrazyl employed has reacted with the free-radical scavenger. This concentration is expressed as EC50, a value which can be considered to be a property of the substance under the given measurement conditions. The substance investigated is compared with a standard (for example tocopherol).
In addition, the slope of the straight lines in the linear region is determined and the EC50 calculated.
A 70 μM stock solution of 2,2-diphenyl-1-picrylhydrazyl (DPPH) in ethanol was prepared. Such amounts of 4,6,3′,4′-tetrahydroxybenzylcoumaranone (THBC) were added to aliquots of this solution so as to give the THBC/DPPH ratios indicated in Table 1. The absorbance was in each case measured at 515 nm, 25° C. and 1 cm, with Table 1 in each case indicating the value measured at constant absorbance. The values are plotted graphically against one another in FIG. 1, with the molar ratio being plotted on the x axis and the measured absorbance as a relative proportion of the absorbance measured for the stock solution (100%) being plotted on the y axis.

[2] = Stabilisation of dibenzoylmethane UV filters against decomposition by UV light; type: physicochemical; details: no method or figures given
Source text: The invention furthermore relates to the stabilisation of UV filters. A known and effective class of light-protection filter substances is formed by dibenzoylmethane derivatives. However, it is disadvantageous that these substances are very easily decomposed by UV light, and their protective properties are thus lost. An example of a light-protection filter from this class of compounds which is available on the market is 4-(tert-butyl)-4′-methoxydibenzoylmethane, which has the following structure: [drawing 18]

Compound: O=C1c2c(O)cc(O)cc2OC1Cc1ccc(O)c(O)c1 (centres unmarked) [THBC, 4,6,3′,4′-tetrahydroxybenzylcoumaranone]
- free-radical scavenger / antioxidant properties compared with tocopherol (vitamin E) [1]: better free-radical scavenger properties than tocopherol
- free-radical scavenger / antioxidant properties compared with tocopherol (vitamin E) ([1]; listed as 4,6,3′,4′-Tetrahydroxycoumaranone): more potent antioxidant than tocopherol
- Absorbance in %, based on absorbance without THBC ([1]; THBC/DPPH 0.01): 97.66%
- Absorbance in %, based on absorbance without THBC ([1]; THBC/DPPH 0.02): 94.04%
- Absorbance in %, based on absorbance without THBC ([1]; THBC/DPPH 0.05): 87.02%
- Absorbance in %, based on absorbance without THBC ([1]; THBC/DPPH 0.07): 79.15%
- Absorbance in %, based on absorbance without THBC ([1]; THBC/DPPH 0.10): 72.13%
- Absorbance in %, based on absorbance without THBC ([1]; THBC/DPPH 0.12): 62.72%
- Absorbance in %, based on absorbance without THBC ([1]; THBC/DPPH 0.18): 44.18%
- Absorbance in %, based on absorbance without THBC ([1]; THBC/DPPH 0.24): 26.08%
- Absorbance in %, based on absorbance without THBC ([1]; THBC/DPPH 0.30): 16.16%
- Absorbance in %, based on absorbance without THBC ([1]; THBC/DPPH 0.37): 15.73%
- Absorbance in %, based on absorbance without THBC ([1]; THBC/DPPH 0.43): 15.27%
- Absorbance in %, based on absorbance without THBC ([1]; THBC/DPPH 0.49): 15.27%
- Absorbance in %, based on absorbance without THBC ([1]; THBC/DPPH 0.55): 15.27%
- Absorbance in %, based on absorbance without THBC ([1]; THBC/DPPH 0.61): 15.05%
- Absorbance in %, based on absorbance without THBC ([1]; THBC/DPPH 0.73): 14.19%
- Absorbance in %, based on absorbance without THBC ([1]; THBC/DPPH 0.97): 14.56%
- Absorbance in %, based on absorbance without THBC ([1]; THBC/DPPH 1.21): 14.56%
- stabilisation action for dibenzoylmethanes [2]: particularly high stabilisation action
